Experimental data as given in patent US20240287138A1, “CYCLIC PEPTIDES FOR INHIBITING TNF RECEPTOR 1 ACTIVITY” (Merck Sharp & Dohme LLC, priority 2023, published 2024).
Numbered stars: 1 amine (or outer) side, 2 acyl side, 3 side chain; on linkers, the order of the positions; unused ones are H or OH. Square brackets hold non-standard residues; d marks the D form. Peptide text beside a SMILES is read from it. * marks the point of attachment. Trp(βS-Me,7-OMe) = COc1cccc2c([C@H](C)[C@H](N)C(=O)O)c[nH]c12; Trp(1-CH2COOH) = N[C@@H](Cc1cn(CC(=O)O)c2ccccc12)C(=O)O; Phe(4-SO2NH2) = N[C@@H](Cc1ccc(S(N)(=O)=O)cc1)C(=O)O; Phe(2-F,4-COOH) = N[C@@H](Cc1ccc(C(=O)O)cc1F)C(=O)O; Trp(7-CN) = N#Cc1cccc2c(C[C@H](N)C(=O)O)c[nH]c12; Trp(7-Cl) = N[C@@H](Cc1c[nH]c2c(Cl)cccc12)C(=O)O; Ala(pyrimidin-5-yl) = N[C@@H](Cc1cncnc1)C(=O)O; Phe(3-CONH2) = NC(=O)c1cccc(C[C@H](N)C(=O)O)c1; Phe(4-CONH2) = NC(=O)c1ccc(C[C@H](N)C(=O)O)cc1; Phe(4-COOH) = N[C@@H](Cc1ccc(C(=O)O)cc1)C(=O)O; Trp(7-aza) = N[C@@H](Cc1c[nH]c2ncccc12)C(=O)O; X9 = CN(C)[C@@H]1C[C@H](C(=O)[*:2])N([*:1])C1; dPro(4S-NH2) = N[C@@H]1CN[C@@H](C(=O)O)C1; Pip(5R-OH) = O=C(O)[C@@H]1CC[C@@H](O)CN1; X1 = O=C([C@@H]1CC[C@H](N[*:1])C1)[*:2]; Pip(4-aza) = O=C(O)[C@@H]1CNCCN1; 4Pal = N[C@@H](Cc1ccncc1)C(=O)O; NMeE = CN[C@@H](CCC(=O)O)C(=O)O; dHyp = O=C(O)[C@H]1C[C@H](O)CN1; Ahp(2) = CCCCC[C@H](N)C(=O)O; αMeS = C[C@](N)(CO)C(=O)O; Carboxymethyl = O=C(O)C*; Nle = CCCC[C@H](N)C(=O)O; Sar = CNCC(=O)O

Molecular target: T1, human soluble TNFR1 (sTNFR1) (Homo sapiens, UniProt P19438)
T1 construct: made in house; host or cells: Sf21 (baculovirus)
T1 sequence (P19438 with tags, fused parts or gaps): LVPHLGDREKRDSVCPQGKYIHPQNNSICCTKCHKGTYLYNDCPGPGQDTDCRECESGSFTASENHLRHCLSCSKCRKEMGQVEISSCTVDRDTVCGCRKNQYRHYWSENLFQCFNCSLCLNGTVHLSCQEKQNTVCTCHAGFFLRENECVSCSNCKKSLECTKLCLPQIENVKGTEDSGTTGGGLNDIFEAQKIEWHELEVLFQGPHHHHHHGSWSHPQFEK
Assay: Human sTNFR1-peptide displacement assay (LanthaScreen Eu TR-FRET binding assay)
Conditions: not given
Outline: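 Readout is the 665/615 nm TR-FRET ratio (Eu anti-His donor, streptavidin-Alexa647 acceptor), normalized to DMSO and saturating displacer, fit by Morrison-based five-parameter logistic for Kd^app. His-tagged sTNFR1 (1-211) prebound to 100 nM biotinylated peptide SEQ ID NO.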

Row | SMILES | Kd
1 | CCCC[C@@H]1NC(=O)[C@@H]2CC[C@@H](C2)NC(=O)[C@H]([C@@H](C)c2c[nH]c3c(OC)cccc23)NC(=O)CN(C)C(=O)[C@H](Cc2ccc(O)cc2)NC(=O)[C@H](Cc2ccc(OCC(=O)O)cc2)NC(=O)[C@](C)(CO)NC(=O)[C@H](Cc2c[nH]c3c(Cl)cccc23)NC(=O)[C@H](Cc2ccncc2)NC(=O)[C@H](CC(N)=O)NC(=O)[C@H](CCC(=O)O)N(C)C(=O)[C@H](Cc2c[nH]c3ccccc23)NC(=O)[C@@H]2CNCCN2C(=O)[C@H](Cc2ccncc2)NC1=O [SEQ ID NO. 80] (cyclo([4Pal][Trp(7-Cl)][αMeS]Y(Carboxymethyl)Y[Sar][Trp(βS-Me,7-OMe)][X1][Nle][4Pal][Pip(4-aza)]W[NMeE]N)) | 0.3 nM
2 | CCCCC[C@@H]1NC(=O)[C@@H]2CC[C@@H](C2)NC(=O)[C@H]([C@@H](C)c2c[nH]c3c(OC)cccc23)NC(=O)CN(C)C(=O)[C@H](Cc2cccc(C(N)=O)c2)NC(=O)[C@H](Cc2ccc(C(N)=O)cc2)NC(=O)[C@](C)(CO)NC(=O)[C@H](Cc2c[nH]c3c(C#N)cccc23)NC(=O)[C@H](Cc2ccc(C(=O)O)cc2)NC(=O)[C@H](CC(N)=O)NC(=O)[C@H]2C[C@@H](N(C)C)CN2C(=O)[C@H](Cc2c[nH]c3ccccc23)NC(=O)[C@@H]2CC[C@@H](O)CN2C(=O)[C@H](Cc2ccncc2)NC1=O [SEQ ID NO. 84] (cyclo([4Pal][Pip(5R-OH)]W[X9]N[Phe(4-COOH)][Trp(7-CN)][αMeS][Phe(4-CONH2)][Phe(3-CONH2)][Sar][Trp(βS-Me,7-OMe)][X1][Ahp(2)])) | 0.06 nM

Same assay, conditions: displacement of biotinylated peptide SEQ ID NO. 1 from sTNFR1; 20 point titration, 5-parameter fit based on Morrison equation (tight binding); read-out: TR-FRET Kd^app

Row | SMILES | Kd
3 | CCCC[C@@H]1NC(=O)[C@@H]2CC[C@@H](C2)NC(=O)[C@H]([C@@H](C)c2c[nH]c3c(OC)cccc23)NC(=O)CN(C)C(=O)[C@H](Cc2ccc(C(=O)O)cc2F)NC(=O)[C@H](Cc2ccc(S(N)(=O)=O)cc2)NC(=O)[C@](C)(CO)NC(=O)[C@H](Cc2c[nH]c3c(C#N)cccc23)NC(=O)[C@H](Cc2ccc(C(=O)O)cc2F)NC(=O)[C@H](CC(N)=O)NC(=O)[C@H]2C[C@H](O)CN2C(=O)[C@H](Cc2c[nH]c3ncccc23)NC(=O)[C@@H]2CC[C@@H](O)CN2C(=O)[C@H](Cc2cncnc2)NC1=O [SEQ ID NO. 51] (cyclo(N[Phe(2-F,4-COOH)][Trp(7-CN)][αMeS][Phe(4-SO2NH2)][Phe(2-F,4-COOH)][Sar][Trp(βS-Me,7-OMe)][X1][Nle][Ala(pyrimidin-5-yl)][Pip(5R-OH)][Trp(7-aza)][dHyp])) | 0.05 nM
4 | CCCC[C@@H]1NC(=O)[C@@H]2CC[C@@H](C2)NC(=O)[C@H]([C@@H](C)c2c[nH]c3c(OC)cccc23)NC(=O)CN(C)C(=O)[C@H](Cc2ccc(C(=O)O)cc2)NC(=O)[C@H](Cc2ccc(C(N)=O)cc2)NC(=O)[C@](C)(CO)NC(=O)[C@H](Cc2c[nH]c3c(Cl)cccc23)NC(=O)[C@H](Cc2ccncc2)NC(=O)[C@H](CC(N)=O)NC(=O)[C@H]2C[C@H](O)CN2C(=O)[C@H](Cc2c[nH]c3ccccc23)NC(=O)[C@@H]2CC[C@@H](O)CN2C(=O)[C@H](Cc2ccncc2)NC1=O [SEQ ID NO. 53] (cyclo([4Pal][Trp(7-Cl)][αMeS][Phe(4-CONH2)][Phe(4-COOH)][Sar][Trp(βS-Me,7-OMe)][X1][Nle][4Pal][Pip(5R-OH)]W[dHyp]N)) | 0.09 nM
5 | CCCC[C@@H]1NC(=O)[C@@H]2CC[C@@H](C2)NC(=O)[C@H]([C@@H](C)c2c[nH]c3c(OC)cccc23)NC(=O)CN(C)C(=O)[C@H](Cc2ccc(C(=O)O)cc2)NC(=O)[C@H](Cc2ccc(C(N)=O)cc2)NC(=O)[C@](C)(CO)NC(=O)[C@H](Cc2c[nH]c3c(Cl)cccc23)NC(=O)[C@H](Cc2ccncc2)NC(=O)[C@H](CC(N)=O)NC(=O)[C@H]2C[C@H](O)CN2C(=O)[C@H](Cc2c[nH]c3ccccc23)NC(=O)[C@@H]2CNCCN2C(=O)[C@H](Cc2ccncc2)NC1=O [SEQ ID NO. 83] (cyclo([4Pal][Trp(7-Cl)][αMeS][Phe(4-CONH2)][Phe(4-COOH)][Sar][Trp(βS-Me,7-OMe)][X1][Nle][4Pal][Pip(4-aza)]W[dHyp]N)) | 0.16 nM
6 | CCCC[C@@H]1NC(=O)[C@@H]2CC[C@@H](C2)NC(=O)[C@H]([C@@H](C)c2c[nH]c3c(OC)cccc23)NC(=O)CN(C)C(=O)[C@H](Cc2ccc(C(=O)O)cc2)NC(=O)[C@H](Cc2ccc(C(N)=O)cc2)NC(=O)[C@](C)(CO)NC(=O)[C@H](Cc2c[nH]c3c(C#N)cccc23)NC(=O)[C@H](Cc2ccc(C(=O)O)cc2)NC(=O)[C@H](CC(N)=O)NC(=O)[C@H]2C[C@H](N)CN2C(=O)[C@H](Cc2cn(CC(=O)O)c3ccccc23)NC(=O)[C@@H]2CC[C@@H](O)CN2C(=O)[C@H](Cc2ccncc2)NC1=O [SEQ ID NO. 104] (cyclo([4Pal][Pip(5R-OH)][Trp(1-CH2COOH)][dPro(4S-NH2)]N[Phe(4-COOH)][Trp(7-CN)][αMeS][Phe(4-CONH2)][Phe(4-COOH)][Sar][Trp(βS-Me,7-OMe)][X1][Nle])) | 0.09 nM
